Measured values taken from patent US20200256853A1, “Models of Reconstructed Sensitive Skin” (Laboratoires Expanscience, priority 2017, published 2020).

Legend:
Type in all cases: cell-based
[1] = system: reconstructed human epidermises; test: Viability of reconstructed epidermises (MTT); details: Lactic acid 0.6% topical, 48 h; control 100%; donor
Method: (§1) Reconstructed human epidermises were obtained from the keratinocytes of a donor using the method derived from Poumay et al. (Arch Dermatol Res 2004; 296:203-11). After 2 days of immersion culture, the reconstructed human epidermises were cultured at the air/liquid interface for 10 days.
The viability of the epidermises was assessed by an MTT metabolism test (n=2). The optical density (OD) at 540 nm is proportional to the amount of living cells and their metabolic activity.

[2] = system: reconstructed human epidermises; test: Gene expression in reconstructed epidermises (qRT-PCR); details: Lactic acid 0.6%; control = 100
Method: Reconstructed human epidermises were obtained from the keratinocytes of a donor using the method derived from Poumay et al. (Arch Dermatol Res 2004; 296:203-11). After 2 days of immersion culture, the reconstructed human epidermises were cultured at the air/liquid interface for 10 days. […] Gene expression of inflammatory markers and of markers of innate immunity and defense was evaluated by real-time quantitative PCR (qRT-PCR) on messenger RNAs extracted from epidermis (n=2). Gene expression of the innate immunity and defense markers, beta-defensin 2 hBD2, or Toll-like receptor 2, was also evaluated in the same way. The gene expression analysis was performed in duplicate using a PCR array. The quantitative analysis of gene expression was based on the analysis of threshold cycles; relative expression (RE) was expressed in arbitrary units according to the following formula: RE=(½ number of cycles)×10^6

[3] = system: reconstructed human epidermises; test: Immunolabeling of involucrin in reconstructed epidermis; details: Lactic acid 0.6%; fluorescence intensity vs. control
Method: Reconstructed human epidermises were obtained from the keratinocytes of a donor using the method derived from Poumay et al. (Arch Dermatol Res 2004; 296:203-11). After 2 days of immersion culture, the reconstructed human epidermises were cultured at the air/liquid interface for 10 days. […] On the other hand, involucrin was stained by immunofluorescence (Alexa-488; green dye), the nuclei were stained by propidium iodide (red dye). The involucrin staining was quantified by measuring the fluorescence intensity reported on the surface of the living layers of the epidermis.

[4] = system: reconstructed human epidermises; test: Intracellular determinations of inflammatory markers (ELISA), Example 2; details: Lactic acid 0.6%
Method: as §1
(§2) Intracellular amounts of IL-1α, IL8 and IL1-RA were determined by ELISA (R&D Systems) in ground epidermis (n=2).

[5] = system: reconstructed human epidermises; test: Determinations of released inflammatory markers, Example 2; details: Lactic acid 0.6%
Method: Reconstructed human epidermises were obtained from the keratinocytes of a donor using the method derived from Poumay et al. (Arch Dermatol Res 2004; 296:203-11). After 2 days of immersion culture, the reconstructed human epidermises were cultured at the air/liquid interface for 10 days. […] The amount of inflammatory markers present in culture supernatants was assessed (n=6) using CBA kits (BD Biosciences) for IL-1 alpha (IL1α) and IL-8; and ELISA kits for VEGF (R&D Systems) and PGE2 (Enzo).

[6] = system: reconstructed human epidermises; test: Determination of polyunsaturated fatty acids (PUFAs) in reconstructed epidermises (GC/MS), Example 2; details: Lactic acid 0.6%
Method: as §1
(§3) Screening of polyunsaturated fatty acids (PUFAs) expressed by the epidermis was carried out by GC/MS analysis of samples obtained after grinding the epidermises (n=2).
(§4) The amounts were normalized by C16:0 (palmitic acid), which is representative of the overall lipid content of the epidermis.

[7] = system: reconstructed Sensitive Skin model (reconstructed human epidermises treated with 0.6% lactic acid); test: Intracellular measurements of inflammatory mediators (ELISA) in reconstructed Sensitive Skin model, Example 3
Method: as §2
(§5) Reconstructed human epidermises were obtained from the keratinocytes of a […] donor using the method derived from Poumay et al. (Arch Dermatol Res 2004; 296:203-11). After 2 days of immersion culture, the reconstructed human epidermises were cultured at the air/liquid interface for 10 days.
(§6) Epidermises at differentiation day 10 was treated or not (control) systemically with the test compounds and incubated for 24 hours.
(§7) The amount of inflammatory mediators IL-1alpha (IL1α), IL-8 and PGE2 present in skin culture supernatants was evaluated using ELISA kits (R&D Systems). • Evaluations of intracellular inflammatory markers IL-1α, IL8 and IL1-RA (n=2)
(§8) Same protocol as described in Example 2. • Determination of Poly-Unsaturated Fatty Acids (PUFAs) (n=2)

[8] = system: reconstructed Sensitive Skin model (reconstructed human epidermises treated with 0.6% lactic acid); test: Determinations of released inflammatory mediators (ELISA) in reconstructed Sensitive Skin model, Example 3
Method: as §5, §6, §7

[9] = system: reconstructed Sensitive Skin model (reconstructed human epidermises treated with 0.6% lactic acid); test: Determination of PUFAs (GC/MS) in reconstructed Sensitive Skin model, Example 3
Method: as §3, §4, §5, §6, §8
Same protocol as described in Example 2.

[10] = Lactic acid 0.6%, change vs. control
[11] = OX100 10 μM + lactic acid 0.6%, change vs. lactic acid
[12] = OX100 100 μM + lactic acid 0.6%
[13] = OX100 100 μM + lactic acid 0.6%, change vs. lactic acid

`CC(O)C(=O)O` (stereo not shown) [Lactic acid, lactic acid] was tested, and the Viability [1] was 66%, the ADCYAP1 gene expression [2] was 117 and the DEFB4A gene expression [2] was 6. The IL1A gene expression [2] was 240, the IL1B gene expression [2] was 195 and the IL1RN gene expression [2] was 144. For the same compound, the IL8 gene expression [2] was 649, the PLA2G2F2F gene expression [2] was 129 and the PTGS2 gene expression [2] was 182. The THBS1 gene expression [2] was 181, the TLR2 gene expression [2] was 54 and the TNF gene expression [2] was 105. For the same compound, the VEGF-A gene expression [2] was 138, the “Decrease in the expression level of involucrin” value [3] was −22% and the “Intracellular IL1-RA Change vs. control” value [4] was “+1242%”. The “Intracellular IL1-alpha Change vs. control” value [4] was “+806%”, the “Intracellular IL8 Change vs. control” value [4] was “+390%” and the “Intracellular IL1-RA” value ([4]; 48 h) was 31243 pg/mg protein. The “Intracellular IL1-alpha” value ([4]; 48 h) was 794 pg/mg protein, the “Intracellular IL8” value ([4]; 48 h) was 52.1 pg/mg protein and the “Released IL1-alpha Change vs. control” value [5] was “+221%”. The “Released IL8 Change vs. control” value [5] was “+84%”, the “Released PGE2 Change vs. control” value [5] was “+207%” and the “Released VEGF Change vs. control” value [5] was “+156%”. The “Released IL1-alpha” value ([5]; 48 h, culture supernatant) was 23 ± 7 pg/mL, the “Released IL8” value ([5]; 48 h, culture supernatant) was 120 ± 18 pg/mL and the “Released PGE2” value ([5]; 48 h, culture supernatant) was 149 ± 36 pg/mL. For the same compound, the “Released VEGF” value ([5]; 48 h, culture supernatant) was 1109 ± 45 pg/mL, the “C18:1 Change vs. control” value [6] was “+20%” and the “C18:1 amount normalized to C16:0” value [6] was 0.226. The “C18:2 LA Change vs. control” value [6] was “+19%”, the “C18:2 LA amount normalized to C16:0” value [6] was 0.216 and the “C20:4 AA Change vs. control” value [6] was “+42%”. For the same compound, the “C20:4 AA amount normalized to C16:0” value [6] was 0.050, the “Intracellular IL1-alpha Mean ± SD” value ([7]; Lactic acid 0.6% topical, 48 h) was 1044 ± 123.0 pg/mg protein and the “Intracellular IL1RA Mean ± SD” value ([7]; Lactic acid 0.6% topical, 48 h) was 25750 ± 1974 pg/mg protein. The “Intracellular IL8 Mean ± SD” value ([7]; Lactic acid 0.6% topical, 48 h) was 79.20 ± 7.715 pg/mg protein, the “Intracellular IL1-alpha Change” value [7, 10] was “+277%” and the “Intracellular IL1RA Change” value [7, 10] was “+394%”. For the same compound, the “Intracellular IL8 Change” value [7, 10] was “+113%”, the “Released IL1-alpha Mean ± Standard deviation” value ([8]; Lactic acid 0.6% topical, 48 h) was 68 ± 34 pg/mL and the “Released IL8 Mean ± Standard deviation” value ([8]; Lactic acid 0.6% topical, 48 h) was 209 ± 40 pg/mL. The “Released PGE2 Mean ± Standard deviation” value ([8]; Lactic acid 0.6% topical, 48 h) was 197 ± 79 pg/mL, the “Released IL1-alpha Change” value [8, 10] was “+511%” and the “Released IL8 Change” value [8, 10] was “+169%”. The “Released PGE2 Change” value [8, 10] was “+584%”, the “C18:1 Mean ± SD, amount normalized to C16:0” value ([9]; Lactic acid 0.6% topical, 48 h) was 0.3880 and the “C18:2 LA Mean ± SD, amount normalized to C16:0” value ([9]; Lactic acid 0.6% topical, 48 h) was 0.2130. The “C20:4 AA Mean ± SD, amount normalized to C16:0” value ([9]; Lactic acid 0.6% topical, 48 h) was 0.0575, the “C18:1 Change” value [9, 10] was “+110%” and the “C18:2 LA Change” value [9, 10] was “+134%”. The “C20:4 AA Change” value [9, 10] was “+113%”.
For `CCCCCCCCCCCC1=NC(C)(C)CO1` [OX100, Cycloceramide], the IL1RA/IL1-alpha ratio Mean ± SD ([7]; OX100 10 μM + lactic acid 0.6%) was 25.6 ± 0.276, the “Intracellular IL1-alpha Mean ± SD” value ([7]; OX100 10 μM + lactic acid 0.6%) was 919.5 ± 53.03 pg/mg protein and the “Intracellular IL1RA Mean ± SD” value ([7]; OX100 10 μM + lactic acid 0.6%) was 23566 ± 1624 pg/mg protein. The “Intracellular IL8 Mean ± SD” value ([7]; OX100 10 μM + lactic acid 0.6%) was 76.24 ± 8.309 pg/mg protein, the “IL1RA/IL1-alpha ratio Change” value [7, 11] was “+4%” and the “Intracellular IL1-alpha Change” value [7, 11] was −12%. For the same compound, the “Intracellular IL1RA Change” value [7, 11] was −8%, the “Intracellular IL8 Change” value [7, 11] was −4% and the IL1RA/IL1-alpha ratio Mean ± SD [7, 12] was 20.5 ± 0.481. For the same compound, the “Intracellular IL1-alpha Mean ± SD” value [7, 12] was 713.5 ± 113.8 pg/mg protein, the “Intracellular IL1RA Mean ± SD” value [7, 12] was 14581 ± 1989 pg/mg protein and the “Intracellular IL8 Mean ± SD” value [7, 12] was 56.95 ± 7.460 pg/mg protein. The “IL1RA/IL1-alpha ratio Change” value [7, 13] was −17%, the “Intracellular IL1-alpha Change” value [7, 13] was −32% and the “Intracellular IL1RA Change” value [7, 13] was −43%. For the same compound, the “Intracellular IL8 Change” value [7, 13] was −28%, the “IL1RA/IL1α ratio (in words)” value ([7]; concentration not given) was “maintained the balance of the IL1RA/IL1α ratio” and the “Increase in intracellular IL1RA level induced by lactic acid treatment (in words)” value ([7]; concentration not given) was “significantly inhibited”. For the same compound, the “Released IL1-alpha Mean ± Standard deviation” value ([8]; OX100 10 μM + lactic acid 0.6%) was 27 ± 13 pg/mL, the “Released IL8 Mean ± Standard deviation” value ([8]; OX100 10 μM + lactic acid 0.6%) was 175 ± 30 pg/mL and the “Released PGE2 Mean ± Standard deviation” value ([8]; OX100 10 μM + lactic acid 0.6%) was 98 ± 28 pg/mL. The “Released IL1-alpha Change” value [8, 11] was −61%, the “Released IL8 Change” value [8, 11] was −16% and the “Released PGE2 Change” value [8, 11] was −50%. For the same compound, the “Released IL1-alpha Mean ± Standard deviation” value [8, 12] was 31 ± 19 pg/mL, the “Released IL8 Mean ± Standard deviation” value [8, 12] was 146 ± 24 pg/mL and the “Released PGE2 Mean ± Standard deviation” value [8, 12] was 100 ± 48 pg/mL. For the same compound, the “Released IL1-alpha Change” value [8, 13] was −54%, the “Released IL8 Change” value [8, 13] was −30% and the “Released PGE2 Change” value [8, 13] was −49%. The “Release of IL1α induced by lactic acid (in words)” value ([8]; concentration not given) was “significantly inhibited”, the “Release of IL8 induced by lactic acid (in words)” value ([8]; concentration not given) was “significantly inhibited” and the “Release of PGE2 induced by lactic acid (in words)” value ([8]; concentration not given) was “significantly inhibited”. For the same compound, the “C18:1 Mean ± SD, amount normalized to C16:0” value ([9]; OX100 10 μM + lactic acid 0.6%) was 0.2795, the “C18:2 LA Mean ± SD, amount normalized to C16:0” value ([9]; OX100 10 μM + lactic acid 0.6%) was 0.1515 and the “C20:4 AA Mean ± SD, amount normalized to C16:0” value ([9]; OX100 10 μM + lactic acid 0.6%) was 0.0380. The “C18:1 Change” value [9, 11] was −28%, the “C18:2 LA Change” value [9, 11] was −29% and the “C20:4 AA Change” value [9, 11] was −34%. For the same compound, the “C18:1 Mean ± SD, amount normalized to C16:0” value [9, 12] was 0.2065, the “C18:2 LA Mean ± SD, amount normalized to C16:0” value [9, 12] was 0.0970 and the “C20:4 AA Mean ± SD, amount normalized to C16:0” value [9, 12] was 0.0265. The “C18:1 Change” value [9, 13] was −47%, the “C18:2 LA Change” value [9, 13] was −54% and the “C20:4 AA Change” value [9, 13] was −54%.
